Values joined by “and” are separate entries in the source; they are usually repeats but may differ in a detail not shown here. Identical values can stand only once. Toxic doses and inconclusive results are not listed. Rule for the calls: active = survival T/C of 150% or more; inactive = T/C below 125% in these data. Residues, ends and D or L forms follow the SMILES beside them. *: point of attachment. Trt = c1ccc(C(c2ccccc2)(c2ccccc2)*)cc1; Bn = c1ccc(C*)cc1
Tested on: BDF1 mice, P388 leukemia ip, median survival T/C
Assay: NCI In Vivo Anticancer Drug Screen. Data for tumor model P388 Leukemia (intraperitoneal) in B6D2F1 (BDF1) mice
Conditions: endpoint: median survival time, higher = longer survival
How it was run: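 Mice carrying the transplantable tumour receive compound or vehicle. Survival is followed in each arm, and the treated measure is divided by the vehicle measure.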

[1] = dose: 100.0 mg/kg/injection, schedule: Q04DX003 (ip), vehicle: saline with Tween-80
[2] = dose: 200.0 mg/kg/injection, schedule: Q04DX003 (ip), vehicle: saline with Tween-80
[3] = dose: 400.0 mg/kg/injection, schedule: Q04DX003 (ip), vehicle: saline with Tween-80
[4] = dose: 12.5 mg/kg/injection, schedule: Q01DX009 (ip), vehicle: saline

Measured: T/C

COC(=O)C(CSC(c1ccccc1)(c1ccccc1)c1ccccc1)NC(=O)C(CSCc1ccccc1)NC(C)=O (stereo not given) (Ac-Cys(Bn)-Cys(Trt)-OMe; configuration not given here)
inactive: dose: 100.0 mg/kg/injection, schedule: Q01DX009 (ip), vehicle: other 88 % of control | dose: 200.0 mg/kg/injection, schedule: Q01DX009 (ip), vehicle: other 93 % of control | dose: 400.0 mg/kg/injection, schedule: Q01DX009 (ip), vehicle: other 107 % of control

C(=Nc1ccccc1)c1ccccc1C=Nc1ccccc1
inactive: [1] 104 % of control | [2] 109 % of control | [3] 100 % of control

Cc1cccnc1NC(=O)/C=C/C(=O)O
inactive: dose: 3.12 mg/kg/injection, schedule: Q01DX001 (ip), vehicle: saline 100 % of control | dose: 6.25 mg/kg/injection, schedule: Q01DX001 (ip), vehicle: saline 100 % of control | dose: 12.5 mg/kg/injection, schedule: Q01DX001 (ip), vehicle: saline 100 % of control | [4] 95 % of control | dose: 12.5 mg/kg/injection, schedule: Q04DX003 (ip), vehicle: saline 100 % of control | dose: 18.0 mg/kg/injection, schedule: Q01DX001 (ip), vehicle: saline 109 % of control | dose: 25.0 mg/kg/injection, schedule: Q01DX009 (ip), vehicle: saline 100 % of control | dose: 28.0 mg/kg/injection, schedule: Q01DX001 (ip), vehicle: saline 100 % of control | dose: 40.0 mg/kg/injection, schedule: Q01DX001 (ip), vehicle: saline 104 % of control

O=C1c2cc([N+](=O)[O-])ccc2-c2cc(Cl)c(Cl)cc21
inactive: dose: 50.0 mg/kg/injection, schedule: Q01DX001 (ip), vehicle: saline sonified 86 % of control | dose: 100.0 mg/kg/injection, schedule: Q01DX001 (ip), vehicle: saline sonified 100 % of control | dose: 200.0 mg/kg/injection, schedule: Q01DX001 (ip), vehicle: saline sonified 90 % of control

CS(=O)(=NC(=S)Nc1ccccc1)c1ccccc1 (stereo not given)
inactive: dose: 75.0 mg/kg/injection, schedule: Q01DX001 (ip), vehicle: other 115 % of control | dose: 150.0 mg/kg/injection, schedule: Q01DX001 (ip), vehicle: other 95 % of control | dose: 300.0 mg/kg/injection, schedule: Q01DX001 (ip), vehicle: other 100 % of control

CCCCCCC[CH2][Sn](=[O])[CH2]CCCCCCC
inactive: dose: 3.12 mg/kg/injection, schedule: Q01DX009 (ip), vehicle: saline 120 % of control | dose: 6.25 mg/kg/injection, schedule: Q01DX009 (ip), vehicle: saline 100 % of control | [4] 115 % of control | dose: 22.0 mg/kg/injection, schedule: Q04DX003 (ip), vehicle: other 109 % of control | dose: 25.0 mg/kg/injection, schedule: Q01DX009 (ip), vehicle: Klucel (hydroxypropylcellulose) (HPC) 86 % of control | dose: 33.0 mg/kg/injection, schedule: Q04DX003 (ip), vehicle: Klucel (hydroxypropylcellulose) (HPC) 100 % of control and 114 % of control | dose: 33.0 mg/kg/injection, schedule: Q04DX003 (ip), vehicle: other 118 % of control | dose: 50.0 mg/kg/injection, schedule: Q04DX003 (ip), vehicle: other 100 % of control | dose: 100.0 mg/kg/injection, schedule: Q04DX003 (ip), vehicle: Klucel (hydroxypropylcellulose) (HPC) 90 % of control

CCOc1ccc(C(=O)Nc2c(C)cc(C)cc2C)cc1
inactive: [1] 96 % of control | [2] 112 % of control | [3] 104 % of control

COC1=C(N)C(=O)c2nc(-c3nc(C=O)c(C)c(-c4ccc(OC)c(OC)c4O)c3N)ccc2C1=O
inactive: dose: 0.8 mg/kg/injection, schedule: Q01DX009 (ip), vehicle: dioxane 104 % of control | dose: 1.05 mg/kg/injection, schedule: Q01DX009 (ip), vehicle: dioxane 122 % of control | dose: 1.55 mg/kg/injection, schedule: Q01DX009 (ip), vehicle: dioxane 99 % of control | dose: 2.55 mg/kg/injection, schedule: Q01DX009 (ip), vehicle: dioxane 107 % of control | dose: 3.05 mg/kg/injection, schedule: Q01DX009 (ip), vehicle: dioxane 104 % of control | dose: 4.05 mg/kg/injection, schedule: Q01DX009 (ip), vehicle: dioxane 109 % of control | dose: 5.05 mg/kg/injection, schedule: Q01DX009 (ip), vehicle: dioxane 118 % of control

Reference: PubChem BioAssay AID328 (DTP/NCI, 2004)
